Key:
Assay in all cases: Kinase selectivity, scanMAX Kinase assay panel (DiscoverX), % control at 1 uM
Type in all cases: binding
[1] = target: T1, scanMAX Kinase assay panel (Homo sapiens, UniProt P27037); settings: ACVR2A; 1 uM; read-out: Percent Control (%)
T1 construct: purchased DiscoverX
In short: (§1)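 Each kinase was first exposed to the test compound at 1 uM in DMSO. Signal was then normalised to positive and negative controls to give % control. Finally, any enzyme showing <35% control was judged inhibited.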

[2] = target: T2, scanMAX Kinase assay panel (Homo sapiens, UniProt P27361); settings: ERK1; 1 uM; read-out: Percent Control (%)
T2 construct: purchased DiscoverX
T2 sequence (P27361 whole entry): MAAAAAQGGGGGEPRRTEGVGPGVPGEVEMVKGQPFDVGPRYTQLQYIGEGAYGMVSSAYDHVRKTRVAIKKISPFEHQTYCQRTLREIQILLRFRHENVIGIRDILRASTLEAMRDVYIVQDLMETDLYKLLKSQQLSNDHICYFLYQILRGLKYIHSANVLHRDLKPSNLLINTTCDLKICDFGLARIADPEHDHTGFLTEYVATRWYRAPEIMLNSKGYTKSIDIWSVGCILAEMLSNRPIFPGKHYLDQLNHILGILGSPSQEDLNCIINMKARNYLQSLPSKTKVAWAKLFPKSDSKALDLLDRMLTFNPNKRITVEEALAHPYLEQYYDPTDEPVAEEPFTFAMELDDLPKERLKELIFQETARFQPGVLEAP
In short: as §1

[3] = target: T3, scanMAX Kinase assay panel (Homo sapiens, UniProt P51956); settings: NEK3; 1 uM; read-out: Percent Control (%)
T3 construct: purchased DiscoverX
T3 sequence (P51956 1-506): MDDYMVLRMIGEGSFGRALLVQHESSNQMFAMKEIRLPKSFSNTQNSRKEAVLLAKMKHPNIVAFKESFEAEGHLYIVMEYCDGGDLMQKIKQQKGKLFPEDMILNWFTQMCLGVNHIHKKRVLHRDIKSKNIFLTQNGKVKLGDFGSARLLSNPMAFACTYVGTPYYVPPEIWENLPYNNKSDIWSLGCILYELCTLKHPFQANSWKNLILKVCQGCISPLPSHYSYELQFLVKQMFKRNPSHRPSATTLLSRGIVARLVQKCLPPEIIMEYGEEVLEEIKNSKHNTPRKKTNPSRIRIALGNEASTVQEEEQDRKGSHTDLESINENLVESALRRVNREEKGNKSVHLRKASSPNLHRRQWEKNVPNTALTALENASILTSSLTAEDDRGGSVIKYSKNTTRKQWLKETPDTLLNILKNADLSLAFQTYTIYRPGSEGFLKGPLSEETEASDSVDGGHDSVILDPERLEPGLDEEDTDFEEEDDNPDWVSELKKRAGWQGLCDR
In short: as §1

[4] = target: T4, scanMAX Kinase assay panel (Homo sapiens, UniProt P53779); settings: JNK3; 1 uM; read-out: Percent Control (%)
T4 construct: purchased DiscoverX
T4 sequence (P53779 whole entry): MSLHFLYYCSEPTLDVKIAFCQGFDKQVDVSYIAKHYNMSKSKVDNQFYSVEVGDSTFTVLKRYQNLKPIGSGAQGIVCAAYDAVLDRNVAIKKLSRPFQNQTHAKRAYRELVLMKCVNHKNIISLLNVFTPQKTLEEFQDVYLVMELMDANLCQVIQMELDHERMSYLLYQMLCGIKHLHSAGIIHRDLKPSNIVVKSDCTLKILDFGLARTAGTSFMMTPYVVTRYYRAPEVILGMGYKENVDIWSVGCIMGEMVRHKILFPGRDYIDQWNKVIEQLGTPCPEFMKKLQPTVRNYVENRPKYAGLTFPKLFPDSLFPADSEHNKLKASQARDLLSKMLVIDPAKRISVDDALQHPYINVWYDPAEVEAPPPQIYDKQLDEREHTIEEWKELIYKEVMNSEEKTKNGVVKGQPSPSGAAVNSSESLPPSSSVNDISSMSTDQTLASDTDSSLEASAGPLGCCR
In short: as §1

[5] = target: T5, scanMAX Kinase assay panel (Homo sapiens, UniProt Q13554); settings: CAMK2B; 1 uM; read-out: Percent Control (%)
T5 construct: purchased DiscoverX
T5 sequence (Q13554 whole entry): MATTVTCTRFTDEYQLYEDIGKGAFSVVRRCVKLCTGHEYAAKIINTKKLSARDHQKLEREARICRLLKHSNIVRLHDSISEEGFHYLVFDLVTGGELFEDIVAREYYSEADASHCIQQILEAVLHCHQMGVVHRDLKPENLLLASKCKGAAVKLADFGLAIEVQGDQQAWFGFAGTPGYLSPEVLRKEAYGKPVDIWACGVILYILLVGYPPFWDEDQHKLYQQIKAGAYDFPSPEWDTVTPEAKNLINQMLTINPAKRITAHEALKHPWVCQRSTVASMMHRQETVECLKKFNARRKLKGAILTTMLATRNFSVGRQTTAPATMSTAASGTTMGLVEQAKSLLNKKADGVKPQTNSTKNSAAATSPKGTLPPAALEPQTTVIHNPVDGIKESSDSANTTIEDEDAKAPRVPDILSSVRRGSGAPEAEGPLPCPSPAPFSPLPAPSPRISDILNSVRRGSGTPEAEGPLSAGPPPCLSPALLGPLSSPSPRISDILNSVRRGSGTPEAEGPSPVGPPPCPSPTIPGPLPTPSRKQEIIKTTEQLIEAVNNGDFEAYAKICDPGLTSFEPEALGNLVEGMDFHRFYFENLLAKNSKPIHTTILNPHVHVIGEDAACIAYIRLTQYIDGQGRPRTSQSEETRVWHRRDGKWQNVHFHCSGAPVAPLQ
In short: as §1

[6] = target: T6, scanMAX Kinase assay panel (Homo sapiens, UniProt Q6P3R8); settings: NEK5; 1 uM; read-out: Percent Control (%)
T6 construct: purchased DiscoverX
T6 sequence (Q6P3R8 1-708): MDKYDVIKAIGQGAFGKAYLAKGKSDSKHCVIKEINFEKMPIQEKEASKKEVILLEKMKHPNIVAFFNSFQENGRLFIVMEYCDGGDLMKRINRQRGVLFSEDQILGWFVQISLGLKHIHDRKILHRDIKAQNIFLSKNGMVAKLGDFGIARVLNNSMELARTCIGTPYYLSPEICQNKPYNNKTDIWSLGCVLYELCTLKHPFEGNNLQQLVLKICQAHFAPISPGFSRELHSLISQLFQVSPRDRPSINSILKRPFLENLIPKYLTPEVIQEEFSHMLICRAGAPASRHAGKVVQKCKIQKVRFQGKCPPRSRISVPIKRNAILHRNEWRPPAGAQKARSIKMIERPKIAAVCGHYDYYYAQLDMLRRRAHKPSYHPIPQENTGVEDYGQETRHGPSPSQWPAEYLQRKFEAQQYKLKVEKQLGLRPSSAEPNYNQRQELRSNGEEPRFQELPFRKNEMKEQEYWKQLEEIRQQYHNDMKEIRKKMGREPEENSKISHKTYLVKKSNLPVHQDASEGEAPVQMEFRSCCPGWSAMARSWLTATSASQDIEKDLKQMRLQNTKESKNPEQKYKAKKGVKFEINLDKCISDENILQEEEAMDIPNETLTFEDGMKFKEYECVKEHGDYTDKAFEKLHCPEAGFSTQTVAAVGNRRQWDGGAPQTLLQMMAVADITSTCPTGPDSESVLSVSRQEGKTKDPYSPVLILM
In short: as §1

[7] = target: T7, scanMAX Kinase assay panel (Homo sapiens, UniProt Q8NEV4); settings: MYO3A; 1 uM; read-out: Percent Control (%)
T7 construct: purchased DiscoverX
T7 sequence (Q8NEV4 whole entry): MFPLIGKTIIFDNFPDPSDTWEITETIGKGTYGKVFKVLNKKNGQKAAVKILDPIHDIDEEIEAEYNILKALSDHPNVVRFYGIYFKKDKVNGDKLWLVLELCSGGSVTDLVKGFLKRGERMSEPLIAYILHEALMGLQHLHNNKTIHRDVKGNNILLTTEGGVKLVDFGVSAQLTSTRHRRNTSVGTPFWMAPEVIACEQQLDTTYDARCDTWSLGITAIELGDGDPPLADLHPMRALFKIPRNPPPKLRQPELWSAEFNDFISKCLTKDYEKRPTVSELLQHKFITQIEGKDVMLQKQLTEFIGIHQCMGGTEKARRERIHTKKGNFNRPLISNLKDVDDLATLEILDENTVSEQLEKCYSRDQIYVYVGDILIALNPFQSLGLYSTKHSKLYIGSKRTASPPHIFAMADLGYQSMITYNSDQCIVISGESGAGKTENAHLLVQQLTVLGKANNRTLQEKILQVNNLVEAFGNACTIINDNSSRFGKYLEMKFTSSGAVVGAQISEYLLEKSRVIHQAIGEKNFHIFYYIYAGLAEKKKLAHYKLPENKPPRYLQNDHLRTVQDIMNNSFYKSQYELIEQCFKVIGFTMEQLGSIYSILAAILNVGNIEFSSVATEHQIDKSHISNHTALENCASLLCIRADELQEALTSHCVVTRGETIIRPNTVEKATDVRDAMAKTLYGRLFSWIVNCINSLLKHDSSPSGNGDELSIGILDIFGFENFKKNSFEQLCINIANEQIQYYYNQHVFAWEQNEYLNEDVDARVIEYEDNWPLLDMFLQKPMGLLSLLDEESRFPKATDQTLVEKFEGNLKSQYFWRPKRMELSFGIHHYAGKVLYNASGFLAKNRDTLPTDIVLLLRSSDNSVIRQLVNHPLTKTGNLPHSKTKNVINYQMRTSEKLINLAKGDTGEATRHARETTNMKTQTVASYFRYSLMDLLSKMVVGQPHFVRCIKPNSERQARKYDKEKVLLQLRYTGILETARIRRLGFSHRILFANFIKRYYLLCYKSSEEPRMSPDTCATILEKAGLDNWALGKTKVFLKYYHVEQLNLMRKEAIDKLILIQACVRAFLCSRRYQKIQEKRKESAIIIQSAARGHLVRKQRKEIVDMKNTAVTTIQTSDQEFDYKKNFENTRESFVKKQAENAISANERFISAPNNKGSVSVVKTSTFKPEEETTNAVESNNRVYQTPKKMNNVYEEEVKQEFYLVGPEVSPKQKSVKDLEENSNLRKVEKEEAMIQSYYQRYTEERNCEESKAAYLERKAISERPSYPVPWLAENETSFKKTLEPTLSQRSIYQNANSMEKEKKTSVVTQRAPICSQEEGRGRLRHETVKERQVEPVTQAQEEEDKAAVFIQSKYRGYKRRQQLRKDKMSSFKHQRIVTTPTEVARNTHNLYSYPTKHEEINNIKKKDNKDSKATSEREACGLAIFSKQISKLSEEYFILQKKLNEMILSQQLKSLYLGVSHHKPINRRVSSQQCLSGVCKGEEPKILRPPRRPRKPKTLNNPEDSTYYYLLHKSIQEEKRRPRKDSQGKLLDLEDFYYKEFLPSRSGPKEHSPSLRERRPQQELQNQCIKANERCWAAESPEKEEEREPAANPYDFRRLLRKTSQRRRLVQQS
In short: as §1

[8] = target: T8, scanMAX Kinase assay panel (Homo sapiens, UniProt Q9NRH2); settings: SNRK; 1 uM; read-out: Percent Control (%)
T8 construct: purchased DiscoverX
T8 sequence (Q9NRH2 1-765): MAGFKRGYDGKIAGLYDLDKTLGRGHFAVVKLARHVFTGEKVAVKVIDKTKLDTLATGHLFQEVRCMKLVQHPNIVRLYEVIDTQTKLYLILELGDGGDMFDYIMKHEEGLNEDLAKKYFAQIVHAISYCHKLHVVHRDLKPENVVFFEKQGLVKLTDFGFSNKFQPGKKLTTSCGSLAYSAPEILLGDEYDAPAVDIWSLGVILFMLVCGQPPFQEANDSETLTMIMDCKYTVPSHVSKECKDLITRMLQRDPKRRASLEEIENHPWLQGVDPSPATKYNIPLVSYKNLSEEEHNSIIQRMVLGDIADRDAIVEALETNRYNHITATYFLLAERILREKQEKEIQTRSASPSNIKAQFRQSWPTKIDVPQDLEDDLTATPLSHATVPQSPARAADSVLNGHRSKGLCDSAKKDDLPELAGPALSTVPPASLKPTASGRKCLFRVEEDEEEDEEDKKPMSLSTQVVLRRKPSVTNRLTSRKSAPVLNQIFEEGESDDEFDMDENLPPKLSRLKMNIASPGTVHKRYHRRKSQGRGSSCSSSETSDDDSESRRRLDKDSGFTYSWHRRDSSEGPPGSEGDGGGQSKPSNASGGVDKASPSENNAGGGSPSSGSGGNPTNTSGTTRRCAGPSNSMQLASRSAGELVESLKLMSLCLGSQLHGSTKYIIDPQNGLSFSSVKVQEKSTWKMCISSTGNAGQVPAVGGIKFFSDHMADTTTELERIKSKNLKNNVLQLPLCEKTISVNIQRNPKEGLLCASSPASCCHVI
In short: as §1

T1 sequence (P27037 20-513): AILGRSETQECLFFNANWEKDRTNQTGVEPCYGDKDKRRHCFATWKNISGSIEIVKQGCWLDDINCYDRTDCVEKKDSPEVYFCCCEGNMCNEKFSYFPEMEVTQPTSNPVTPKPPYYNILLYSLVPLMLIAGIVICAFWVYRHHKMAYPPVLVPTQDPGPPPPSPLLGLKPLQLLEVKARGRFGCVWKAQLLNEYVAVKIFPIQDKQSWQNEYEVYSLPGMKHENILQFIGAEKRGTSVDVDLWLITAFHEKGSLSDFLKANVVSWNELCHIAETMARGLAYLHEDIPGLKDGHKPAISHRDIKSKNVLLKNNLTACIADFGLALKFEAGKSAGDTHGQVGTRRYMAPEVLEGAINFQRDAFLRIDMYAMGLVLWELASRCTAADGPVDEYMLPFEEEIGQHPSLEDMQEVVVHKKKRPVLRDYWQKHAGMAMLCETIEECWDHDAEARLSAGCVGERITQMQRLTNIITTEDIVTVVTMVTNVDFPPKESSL

Row | SMILES | remaining binding at 1 µM [1] | remaining binding at 1 µM [2] | remaining binding at 1 µM [3] | remaining binding at 1 µM [4] | remaining binding at 1 µM [5] | remaining binding at 1 µM [6] | remaining binding at 1 µM [7] | remaining binding at 1 µM [8]
1 | Cc1ccc(C(=O)Nc2ccc(CN3CCN(C)CC3)c(C(F)(F)F)c2)cc1C#Cc1cnc2c(Nc3cnn(C)c3)cccn12 [Example 1, 4-methyl-3-((8-((1-methyl-1H-pyrazol-4-yl)amino)imidazo[1,2-a]pyridin-3-yl)ethynyl)-N-(4-((4-methylpiperazin-1-yl)methyl)-3-(trifluoromethyl)phenyl)benzamide] | 95% | 87% | 64% | 19% | 76% | 2% | 14% | 84%
2 | Cc1cn(-c2cc(NC(=O)c3ccc(C)c(C#Cc4cnc5c(Nc6cnn(C)c6)cccn45)c3)cc(C(F)(F)F)c2)cn1 [Example 12, 4-methyl-N-(3-(4-methyl-1H-imidazol-1-yl)-5-(trifluoromethyl)phenyl)-3-((8-((1-methyl-1H-pyrazol-4-yl)amino)imidazo[1,2-a]pyridin-3-yl)ethynyl)benzamide] | 100% | 100% | 86% | 98% | 96% | 86% | 88% | 100%
3 | Cc1ccc(NC(=O)C2(C(=O)Nc3ccc(F)cc3)CC2)cc1C#Cc1cnc2c(Nc3cnn(C(C)C)c3)cccn12 [Example 78] | 100% | 100% | 96% | 100% | 100% | 100% | 100% | 95%

From patent US10870647B2, “Imidazopyridine derivative, method for preparing same, and pharmaceutical composition containing same as active ingredient for preventing or treating cancer” (DAEGU-GYEONGBUK MEDICAL INNOVATION FOUNDATION, priority 2016, dated 2020)
